Laboratory results reported in patent publication US12459918B2, “Isoquinolinone derivatives serving as rock protein kinase inhibitors and use thereof” (GUANGZHOU OCUSUN OPHTHALMIC BIOTECHNOLOGY CO., LTD., priority 2019, dated 2025).

How the values were obtained:
Format in all cases: in vivo
[1] = tested on: New Zealand rabbits with acute ocular hypertension; experiment: Intraocular pressure reduction experiment in New Zealand rabbits with acute ocular hypertension, experiment operation 1; conditions: 10 mg/mL both eyes; for Intraocular pressure in the left eye: left eye (not modeled); for Intraocular pressure in the right eye: right eye (induced ocular hypertension)
From the text: (§1) Experimental Example 3. Intraocular Pressure Reduction Experiment in New Zealand Rabbits with Acute Ocular Hypertension
(§2) Acute ocular hypertension of rabbits were induced by anterior chamber injection of a viscoelastic agent and the intraocular pressure reduction action of compound 60 and compound 63 at different concentrations were explored by eye-drop administration.
(§3) Male New Zealand rabbits, aged 97-127 days, weighted 2.5-3.4 kg, purchased from PizhouDongfang Breeding Co. Ltd.
Male New Zealand rabbits were randomly divided into 8 rabbits/per group according to body weight using a computer-generated randomization method. The animals in each group were injected with medical sodium hyaluronate gel in the anterior chamber of right eye in a single dose, 100 μL/eye, to induce ocular hypertension. In 5-15 minutes, 3 hours and 6 hours after right eye modeling, both eyes were dropped with a solvent, K-115 or test samples (compound 60 at different concentrations) at a volume of 50 μL/eye and intraocular pressure of the animals was measured before administration and in 1, 2, 4, 6, 8 and 10 hours after administration, respectively.

[2] = tested on: New Zealand rabbits with normal intraocular pressure; experiment: Ocular stimulation response examination by hand-held slit lamp, 14 days eye-drop administration; conditions: 4 mg/mL, 14 consecutive days, 50 μL/eye/day
Description: (§4) 42 male New Zealand rabbits were randomly divided into 7 groups, with 6 rabbits per group. Animals were randomly divided according to body weight Animals in 1-7 groups were eye-dropped with normal saline in the left eye and with solvent/control sample/test sample in the right eye respectively by a volume of 50 μL/eye, once per day for 14 consecutive days, and the day of administration was recorded as Day 1. The intraocular pressure of the animals was measured before Day 1 administration and in 1, 2, 4, 6, 8 and 10 hours after Day 1 administration, respectively (Table 8).
Before the experiment (Day 2/Day 1), before daily administration during the administration (Days 1-14), and in 1, 2, 4, 24, 48 and 72 hours after the last administration (Day 14), the eyes of animals were examined for ocular stimulation response and fluorescein sodium by a hand-held slit lamp (scoring by referring to the scoring criteria).
Before the experiment (Day 2/Day 1), before the first daily administration (Days 1-14) during the administration, and in 1, 2, 4, 24, 48 and 72 hours after the last administration, the eyes of animals were examined for ocular stimulation response by a hand-held slit lamp. The scoring criteria were as follows. […]

[3] = tested on: New Zealand rabbits with normal intraocular pressure; experiment: Repeated eye-drop administration for 14 days, experiment operation 2: Day 1 intraocular pressure; conditions: Day 1; for Mean intraocular pressure of both eyes: 4 mg/mL in right eye, saline in left; for Change of intraocular pressure: 4 mg/mL, group minus negative control
From the text: Experimental example 4. Experiment on reduction of intraocular pressure and ocular toxicity of New Zealand rabbits with normal intraocular pressure by repeated eye-drop administration for 14 days
The intraocular pressure reduction action and the potential ocular toxicity of compound 63 were explored by 14 days of repeated eye-drop administration in rabbits with normal intraocular pressure.
Male New Zealand rabbits, aged 97-127 days, weighted 2.6-3.5 kg, purchased from PizhouDongfang Breeding Co. Ltd.
as §4

[4] = tested on: New Zealand rabbits with acute ocular hypertension; experiment: Intraocular pressure reduction experiment in New Zealand rabbits with acute ocular hypertension, experiment operation 2; conditions: for Intraocular pressure in the left eye: 4 mg/mL group, left eye (solvent, not modeled); for Intraocular pressure in the right eye: 4 mg/mL in right eye (induced ocular hypertension)
From the text: as §1, §2, §3
50 male New Zealand rabbits were randomly divided into 5 groups according to body weight, with 10 rabbits/per group Animals in 1-5 groups were injected with medical sodium hyaluronate gel in the anterior chamber of right eye in a single dose, 100 μL/eye, to induce ocular hypertension. In 5-15 minutes after modeling, the right eye was respectively dropped with a solvent, K-115 and test samples (compound 63 at different concentrations), the left eye was dropped with a solvent, the volume of the administration was all 50 μL/eye, and intraocular pressure in both eyes of the animals was measured before administration and in 2, 4, 6, 8 and 10 hours after administration, respectively.

## C[C@H]1CNCCCN1S(=O)(=O)c1cccc2cncc(F)c12 [Compound K-115, reference compound]
[1]; 1 hour after administration
  Intraocular pressure in the left eye: 5.88 mmHg
  Intraocular pressure in the right eye: 28.79 mmHg
[1]; 2 hours after administration
  Intraocular pressure in the left eye: 5.96 mmHg
  Intraocular pressure in the right eye: 22.67 mmHg
[1]; 4 hours after administration
  Intraocular pressure in the left eye: 8.29 mmHg
  Intraocular pressure in the right eye: 26.08 mmHg
[1]; 6 hours after administration
  Intraocular pressure in the left eye: 10.54 mmHg
  Intraocular pressure in the right eye: 23.25 mmHg
[1]; 8 hours after administration
  Intraocular pressure in the left eye: 11.88 mmHg
  Intraocular pressure in the right eye: 23.25 mmHg
[1]; 10 hours after administration
  Intraocular pressure in the left eye: 11.79 mmHg
  Intraocular pressure in the right eye: 11.92 mmHg
[1]; before administration
  Intraocular pressure in the left eye: 11.79 mmHg
  Intraocular pressure in the right eye: 11.92 mmHg
[2]
  Evaluation of ocular stimulation: no stimulation
[3]; 1 hour after administration
  Mean intraocular pressure of both eyes: 5.50 mmHg
  Change of intraocular pressure: −3.39 mmHg
[3]; 2 hours after administration
  Mean intraocular pressure of both eyes: 7.06 mmHg
  Change of intraocular pressure: −2.50 mmHg
[3]; 4 hours after administration
  Mean intraocular pressure of both eyes: 9.00 mmHg
  Change of intraocular pressure: −0.89 mmHg
[3]; 6 hours after administration
  Mean intraocular pressure of both eyes: 9.17 mmHg
  Change of intraocular pressure: −1.61 mmHg
[3]; 8 hours after administration
  Mean intraocular pressure of both eyes: 10.61 mmHg
  Change of intraocular pressure: 0.23 mmHg
[3]; 10 hours after administration
  Mean intraocular pressure of both eyes: 12.33 mmHg
  Change of intraocular pressure: 0.17 mmHg
[3]; before administration
  Mean intraocular pressure of both eyes: 10.17 mmHg
  Change of intraocular pressure: 0.83 mmHg
[4]; 2 hours after administration
  Intraocular pressure in the left eye: 6.50 mmHg
  Intraocular pressure in the right eye: 8.20 mmHg
[4]; 4 hours after administration
  Intraocular pressure in the left eye: 8.54 mmHg
  Intraocular pressure in the right eye: 11.27 mmHg
[4]; 6 hours after administration
  Intraocular pressure in the left eye: 11.40 mmHg
  Intraocular pressure in the right eye: 15.07 mmHg
[4]; 8 hours after administration
  Intraocular pressure in the left eye: 13.20 mmHg
  Intraocular pressure in the right eye: 15.57 mmHg
[4]; 10 hours after administration
  Intraocular pressure in the left eye: 13.37 mmHg
  Intraocular pressure in the right eye: 16.47 mmHg
[4]; before administration
  Intraocular pressure in the left eye: 11.80 mmHg
  Intraocular pressure in the right eye: 11.77 mmHg
